Results published in the NIST ThermoML archive (doi:10.1021/acs.jced.8b00521).

Assay: xn = mol fraction of the nth substance listed
Details: Liquid; for mass density: Vibrating tube method; for viscosity: Capillary tube (Ostwald / Ubbelohde) method

CCCCCCCC(=O)OCC [ethyl octanoate] + CCCCCCCCCCCC(=O)OC
Details | mass density [kg/m3] | viscosity [mPa·s]
303.15 K, 12010 kPa, x2 = 0.6001 | 867 | –
303.15 K, 12020 kPa, x2 = 0.1999 | 865 | 1.7
303.15 K, 12020 kPa, x2 = 0.4999 | 867 | 2.08
303.15 K, 12030 kPa, x2 = 0.9 | 869 | 2.64
303.15 K, 12040 kPa, x2 = 0.4 | 866 | 1.94
303.15 K, 14940 kPa, x2 = 0.6001 | 869 | 2.3
303.15 K, 14970 kPa, x2 = 0.6999 | 870 | 2.44
303.15 K, 14970 kPa, x2 = 0.8001 | 870 | 2.56
303.15 K, 14980 kPa, x2 = 0.9 | 871 | 2.7
303.15 K, 15020 kPa, x2 = 0.1 | 866 | 1.64
303.15 K, 15040 kPa, x2 = 0.4999 | 868 | 2.13
303.15 K, 15070 kPa, x2 = 0.1999 | 867 | 1.75
303.15 K, 15070 kPa, x2 = 0.3001 | 867 | 1.88
303.15 K, 15080 kPa, x2 = 0.4 | 868 | 2
313.15 K, 100 kPa, x2 = 0.1 | 850 | 1.22
313.15 K, 100 kPa, x2 = 0.1999 | 850 | 1.31
313.15 K, 100 kPa, x2 = 0.3001 | 851 | 1.39
313.15 K, 100 kPa, x2 = 0.4 | 851 | 1.46
313.15 K, 100 kPa, x2 = 0.4999 | 851 | 1.55
313.15 K, 100 kPa, x2 = 0.6001 | 852 | 1.65
313.15 K, 100 kPa, x2 = 0.6999 | 852 | 1.75
313.15 K, 100 kPa, x2 = 0.8001 | 852 | 1.85
313.15 K, 100 kPa, x2 = 0.9 | 853 | 1.95
313.15 K, 2950 kPa, x2 = 0.6001 | 853 | 1.71
313.15 K, 2960 kPa, x2 = 0.8001 | 854 | 1.93
313.15 K, 2970 kPa, x2 = 0.6999 | 854 | 1.82
313.15 K, 2980 kPa, x2 = 0.1 | 851 | 1.25
313.15 K, 2980 kPa, x2 = 0.1999 | 852 | 1.34
313.15 K, 2990 kPa, x2 = 0.3001 | 852 | 1.43
313.15 K, 3030 kPa, x2 = 0.4 | 853 | 1.52
313.15 K, 3040 kPa, x2 = 0.4999 | 853 | 1.59
313.15 K, 3070 kPa, x2 = 0.9 | 855 | 2.03
313.15 K, 5960 kPa, x2 = 0.3001 | 854 | 1.48
313.15 K, 5990 kPa, x2 = 0.6999 | 856 | 1.89
313.15 K, 5990 kPa, x2 = 0.8001 | 856 | 1.99
313.15 K, 6000 kPa, x2 = 0.1 | 853 | 1.29
313.15 K, 6000 kPa, x2 = 0.1999 | 854 | 1.38
313.15 K, 6000 kPa, x2 = 0.6001 | 855 | 1.76
313.15 K, 6050 kPa, x2 = 0.4 | 854 | 1.56
313.15 K, 6090 kPa, x2 = 0.9 | 857 | 2.09
313.15 K, 6100 kPa, x2 = 0.4999 | 855 | 1.65
